Test results published in patent US11446285B2, “Methods for treating systemic lupus erythematosus” (University of Southern California, priority 2017, dated 2022).
“Also recorded” adds a separate entry of the source.

Key:
Type in all cases: in vivo
MRL-lpr mice [1] = assay: Glomerulonephritis scores (H&E kidney sections) in MRL-lpr mouse model of SLE; conditions: once daily s.c. for 6 weeks, A(1-7) 0.5 mg/kg, Compound 7 2 mg/kg, compared to saline treated MRL-lpr mice
Description: Glomerulonephritis scores. Twenty glomeruli from kidney sections stained with H&E were scored for each mouse and a mean score was calculated. The glomerulonephritis score was based on a previously published score of 0-4 based on histopathological changes^6. The scores were defined as: 0, kidney without glomerular lesions; 1, minimal thickening of the mesangium; 2, noticeable increase in both mesangial and glomerular capillary cellularity; 3, preceding conditions, along with superimposed inflammatory exudates and capsular adhesions; 4, obliteration of the glomerular architecture included >70% of glomeruli.
(§1) Our study uses the MRL/MpJ-Fas^lpr/J (MRL-lpr) as a mouse model of SLE and MRL/MpJ mice as controls (control mice do develop SLE but at a much later stage in life). These mice were broken into 4 groups that received once daily subcutaneous injections of treatment starting at 8 weeks of age for 6 weeks: a MRL/MpJ group (n=5) dosed daily with saline, an MRL-lpr group (n=8) dosed with saline, an MRL/MpJ group (n=8) dosed with 0.5 mg/kg of A(1-7), and an MRL/MpJ group (n=8) dosed with 2 mg/kg of Compound 7 (in an aqueous Tween 20 formulation). Throughout the study, the mice were monitored for proteinuria and face lesions. At necropsy, the kidneys and peripheral blood were harvested. The kidneys sections were stained with hematoxylin & eosin (H&E) for evaluation of glomerular health. […]

MRL-lpr mice [2] = assay: Anti-dsDNA IgG titers in plasma (ELISA) in MRL-lpr mouse model of SLE; conditions: plasma at necropsy after 6 weeks of treatment, A(1-7) 0.5 mg/kg, Compound 7 2 mg/kg s.c. daily, compared to saline treated MRL-lpr mice
Description: Anti-dsDNA IgG titers. Peripheral blood was collected at necropsy by cardiac puncture with a 1 mL syringe fitted with a 22G needle, transferred into 2 ml K3E K3EDTA VACUETTE® tubes, and stored on ice. The tubes were then spun at 1,500 RPM for 15 min at 4° C. The plasma (top layer) was collected and stored at −20° C. The plasma was then diluted at 1:100 and used in a Mouse Anti-DNA IgG Antibody ELISA Kits (Chondrex Inc, Redmond, Wash.). The average concentration of duplicate samples was calculated against a standard curve and averaged for each mouse.
as §1

MRL-lpr mice [3] = assay: Protein urine scores in MRL-lpr mouse model of SLE; conditions: once daily s.c. for 6 weeks from 8 weeks of age, A(1-7) 0.5 mg/kg, Compound 7 2 mg/kg, compared to saline treated MRL-lpr mice
Description: Protein urine scores. At necropsy a final measurement or proteinuria was done using Urinalysis Reagent Strips (Mountainside Medical Equipment; Marcy, N.Y.). Protein scores signify the level of protein measured in the urine of each mouse and are scored as; 1-15 mg/dl protein, 2-30 mg/dl protein, 3-100 mg/dl protein and 4-300 mg/dl protein.
(§2) Our study uses the MRL/MpJ-Fas^lpr/J (MRL-lpr) as a mouse model of SLE and MRL/MpJ mice as controls (control mice do develop SLE but at a much later stage in life). These mice were broken into 4 groups that received once daily subcutaneous injections of treatment starting at 8 weeks of age for 6 weeks: a MRL/MpJ group (n=5) dosed daily with saline, an MRL-lpr group (n=8) dosed with saline, an MRL/MpJ group (n=8) dosed with 0.5 mg/kg of A(1-7), and an MRL/MpJ group (n=8) dosed with 2 mg/kg of Compound 7 (in an aqueous Tween 20 formulation). Throughout the study, the mice were monitored for proteinuria and face lesions. At necropsy, the kidneys and peripheral blood were harvested. The kidneys sections were stained with hematoxylin & eosin (H&E) for evaluation of glomerular health. Blood samples were processed and the plasma was stored at −20° C. for measurement of anti-dsDNA antibodies.

MRL-lpr mice [4] = assay: Lymph node weights (inguinal and axillary) in MRL-lpr mouse model of SLE; conditions: 6 weeks of treatment, A(1-7) 0.5 mg/kg, Compound 7 2 mg/kg s.c. daily, compared to saline treated MRL-lpr mice
Text: Lymph node weights. At necropsy, inguinal and axillary lymph nodes were dissected and trimmed of any surrounding fatty tissues. They were then weighed using an Adventurer precision balance (Ohaus Corporation, Parsippany, N.J.).
as §2

MRL-lpr mice [5] = assay: Face rash scores in MRL-lpr mouse model of SLE; conditions: scored 19, 25, 30, 37 and 40 days after start of treatment, A(1-7) 0.5 mg/kg, Compound 7 2 mg/kg s.c. daily, compared to saline treated MRL-lpr mice
Text: Face rash scores. Mice were monitored daily for skin lesions. Scores of lesions of the face were taken 19, 25, 30, 37 and 40 days after the start of treatment; pictures were taken at different time points throughout the study. Face rash scores were based on location and extent of inflammation and hair loss as follows: 0, no noticeable irritation; 1, little redness, no hair loss or inflammation; 2, minimal rash, little hair loss or inflammation; 3, moderate rash, increased hair loss, light inflammation; 4, pronounced rash, near total hair loss and obvious inflammation; 5, rash is spreading up to the top of the face; 6, obvious wound above nose.
as §2

Compound	glomerulonephritis score (glomerular pathologies) (MRL-lpr mice [1])	concentration of circulating anti-dsDNA IgG antibodies in plasma (MRL-lpr mice [2])	protein urine score (proteinuria) at final measurement (MRL-lpr mice [3])	inguinal and axillary lymph node weight (size) at necropsy (MRL-lpr mice [4])	face rash score (inflammation and hair loss) (MRL-lpr mice [5])	face rash score (inflammation and hair loss) (MRL-lpr mice [5]; listed as compound 7)
Asp-Arg-Val-Tyr-Ile-His-Pro (DRVYIHP) [A(1-7), endogenous Mas receptor ligand angiotensin 1-7]	significantly reduced the glomerular pathologies	significantly lower levels of circulating IgG antibodies against dsDNA; also recorded: significantly lower concentrations	significantly lower protein scores	reduced the size of both lymph nodes; also recorded: significantly smaller	significantly less overall pathologies; also recorded: significantly lower score than the saline treated MRL-lrp mice throughout the study	
CCCCOC(=O)NS(=O)(=O)c1ccc(OC(F)(F)F)cc1-c1ccc(Cn2ccnc2)cn1 [Compound 7]	significantly reduced the glomerular pathologies	significantly lower levels of circulating IgG antibodies against dsDNA; also recorded: significantly lower concentrations	significantly lower protein scores	reduced the size of both lymph nodes; also recorded: reduced the size but not significantly	significantly lower only at day 19 and 37	significantly less overall pathologies
